Results published in patent US20110166112A1, “METHOD FOR STIMULATING PLATELET PRODUCTION” (Eisai, Inc., priority 2009, published 2011).

Tested on: subjects with chronic ITP who completed 28 days of study treatment
Experiment: Phase 2 6-month rollover study of E5501: effectiveness (durable, transient, overall platelet response, maintenance, steroid use, upward dose titration)
Format: in vivo, human
Method: This study was a multicenter, parallel-group, rollover study of E5501 in subjects with chronic ITP who were enrolled in and completed 28 days' of study treatment. All subjects who completed the previous study and otherwise met the eligibility criteria for this rollover protocol were enrolled.
Subjects who rolled over from the previous study were treated for an additional 6 months after completing previous study.
Initial dose: Subjects who met the efficacy response in the previous study continued to receive their previous blinded dose at entry into this study.
Dose titration was performed in an open label fashion in 10 mg increments as follows: • Nonresponders, who received initial doses of open-label E5501 10 mg in the previous study, could have their dose increased in 10 mg increments every 14 days to a maximum of 40 mg/day in the absence of platelet response.
Subjects were also permitted to reduce their dose of ITP-directed concomitant therapy (e.g., steroids). The overall goal of any dose modification was to maintain the subject's peripheral platelet count above 50,000/mm^3 and to decrease the need for ITP-directed concomitant medications (if applicable). During any dose modification of study drug or ITP-directed concomitant medications, platelet counts were collected every week. After platelet counts stabilized, platelet count collection reverted to a biweekly schedule.
Assessments: Study subjects were evaluated for safety and efficacy (including platelet count) on day 1 and then biweekly while receiving treatment.
Two primary analysis populations were used to summarize safety and effectiveness: • Safety population: all subjects who received at least 1 dose of study drug and had at least 1 post-treatment safety assessment in either the previous or this study. All safety analyses were performed using this population. • Full Analysis Set (FAS): all subjects who participated in both studies and who had at least one post-treatment effectiveness assessment in this study. All efficacy analyses were performed using this population.
Secondary Endpoints: The secondary endpoints were markers of effectiveness, including: • 1. Changes in platelet count from baselines of the previous study and of this study by study visit; and • 2. Durable platelet response, defined as subjects who had at least 3 platelet count assessments in the last 14 weeks of the 24-week treatment period, and whose platelet count was at a response level for at least 75% of the time in the last 14 weeks during the 24-week treatment period, with no rescue medication used during the 24-week treatment period. Platelet response level was defined as ≧50,000/mm^3 for subjects whose baseline platelet count was <30,000/mm^3 in the previous study or an increase in baseline platelet count of ≧20,000/mm^3 for subjects receiving steroids whose baseline platelet count in the previous study was ≧30,000/mm^3 but <50,000/mm^3; • 3. Transient platelet response, defined as achievement of a response level for any 4 consecutive weeks during the 24-week treatment period without durable platelet response in the absence of any rescue medication; • 4. Overall platelet response (durable platelet response plus transient platelet response); • 5. Maintenance of platelet response, defined as subjects who were responders in the previous study (e.g., responders on day 28 of the previous study) who achieved a durable response in this study and had no upward dose titration of E5501 during this study; • 6. Permanent discontinuation of steroid use, defined as subjects who used steroid medication within the 2-week period before their first dose of study drug in this study, and for whom concomitant steroid medication was discontinued at least 8 weeks before the end of the treatment period; • 7. Reduction of steroid use by at least 50%. […]

[1] = FAS, Baseline PC >15K/mm^3, Responders, N assessed 19
[2] = FAS, Baseline PC ≦15K/mm^3, E5501 Total, N assessed 15
[3] = FAS, Baseline PC ≦15K/mm^3, Non-Responders, N assessed 9
[4] = FAS, Baseline PC ≦15K/mm^3, Responders, N assessed 6
[5] = FAS, History of Splenectomy, E5501 Total, N assessed 17
[6] = FAS, History of Splenectomy, Non-Responders, N assessed 10
[7] = FAS, History of Splenectomy, Responders, N assessed 7
[8] = FAS, No History of Splenectomy, E5501 Total, N assessed 36
[9] = FAS, No History of Splenectomy, Non-Responders, N assessed 18
[10] = FAS, No History of Splenectomy, Responders, N assessed 18
[11] = FAS, ≧3 Lines of Prior Therapy, E5501 Total, N assessed 35
[12] = FAS, ≧3 Lines of Prior Therapy, Non-Responders, N assessed 22
[13] = FAS, ≧3 Lines of Prior Therapy, Responders, N assessed 13
[14] = SE population, E5501 Total (N=36)
[15] = SE population, Non-Responders (N=15)
[16] = SE population, Responders (N=21)

O=C(Nc1nc(-c2cc(Cl)cs2)c(N2CCN(C3CCCCC3)CC2)s1)c1cnc(N2CCC(C(=O)O)CC2)c(Cl)c1 [E5501, 1-(3-chloro-5-{[4-(4-chlorothiophen-2-yl)-5-(4-cyclohexylpiperazin-1-yl)thiazol-2-yl]carbamoyl}pyridine-2-yl)piperidine-4-carboxylic acid]
Durable Platelet Response, n (%) with response [1]: 15 (78.9) n (%) | Overall Platelet Response, n (%) with response [1]: 18 (94.7) n (%) | Durable Platelet Response, n (%) with response [2]: 4 (26.7) n (%) | Overall Platelet Response, n (%) with response [2]: 7 (46.7) n (%) | Durable Platelet Response, n (%) with response [3]: 1 (11.1) n (%) | Overall Platelet Response, n (%) with response [3]: 3 (33.3) n (%) | Durable Platelet Response, n (%) with response [4]: 3 (50.0) n (%) | Overall Platelet Response, n (%) with response [4]: 4 (66.7) n (%) | Durable Platelet Response, n (%) with response [5]: 5 (29.4) n (%) | Overall Platelet Response, n (%) with response [5]: 10 (58.8) n (%) | Durable Platelet Response, n (%) with response [6]: 1 (10.0) n (%) | Overall Platelet Response, n (%) with response [6]: 5 (50.0) n (%) | Durable Platelet Response, n (%) with response [7]: 4 (57.1) n (%) | Overall Platelet Response, n (%) with response [7]: 5 (71.4) n (%) | Durable Platelet Response, n (%) with response [8]: 23 (63.9) n (%) | Overall Platelet Response, n (%) with response [8]: 30 (83.3) n (%) | Durable Platelet Response, n (%) with response [9]: 9 (50.0) n (%) | Overall Platelet Response, n (%) with response [9]: 13 (72.2) n (%) | Durable Platelet Response, n (%) with response [10]: 14 (77.8) n (%) | Overall Platelet Response, n (%) with response [10]: 17 (94.4) n (%) | overall platelet response rate (FAS, all subjects): 75.5% | overall platelet response rate (FAS, nonresponders): 64.3% | overall platelet response rate (FAS, responders): 88.0% | Durable Platelet Response, n (%) with response [11]: 16 (45.7) n (%) | Overall Platelet Response, n (%) with response [11]: 25 (71.4) n (%) | Durable Platelet Response, n (%) with response [12]: 7 (31.8) n (%) | Overall Platelet Response, n (%) with response [12]: 14 (63.6) n (%) | Durable Platelet Response, n (%) with response [13]: 9 (69.2) n (%) | Overall Platelet Response, n (%) with response [13]: 11 (84.6) n (%) | overall platelet response rate (SE population): 94.4% | Durable Platelet Response No, % [14]: (25.0) % | Durable Platelet Response Yes, % [14]: (75.0) % | Transient Platelet Response No, % [14]: (80.6) % | Transient Platelet Response Yes, % [14]: (19.4) % | With Overall Response No, % [14]: (5.6) % | With Overall Response Yes, % [14]: (94.4) % | Durable Platelet Response No, % [15]: (40.0) % | Durable Platelet Response Yes, % [15]: (60.0) % | Transient Platelet Response No, % [15]: (73.3) % | Transient Platelet Response Yes, % [15]: (26.7) % | With Overall Response No, % [15]: (13.3) % | With Overall Response Yes, % [15]: (86.7) % | Durable Platelet Response No, % [16]: (14.3) % | Durable Platelet Response Yes, % [16]: (85.7) % | Transient Platelet Response No, % [16]: (85.7) % | Transient Platelet Response Yes, % [16]: (14.3) % | With Overall Response Yes, % [16]: (100.0) % | Durable platelet response rate (SE population, all subjects): 75% | Durable platelet response rate (SE population, non-responders): 60.0% | Durable platelet response rate (SE population, responders): 85.7% | subjects who needed an upward dose titration (all subjects (n=26/53)): 49% | subjects able to decrease their steroid dose by at least 50% (in vivo): Thirteen | improved overall response rate when subjects received a dose titration (non-responders in the previous study): 87.6% | overall response rate (non-responders on E5501 2.5 mg in previous study, open-label E5501 10 mg in current study): 70% | overall response rate (non-responders on E5501 5 mg in previous study, open-label E5501 10 mg in current study): 80% | overall response rate (non-responders on placebo in previous study, open-label E5501 10 mg in current study): 80% | subjects not responding to E5501 10 mg in the previous study who responded at 20 mg (of five subjects): Two | subjects who used concomitant steroids able to decrease their concomitant steroid use by at least 50% (regardless of responder status): 54.2% | subjects who used concomitant steroids able to permanently discontinue using steroids (regardless of responder status): 33.3% | overall response when subjects received a dose titration (responders in the previous study): 100% | overall response rate (responders receiving double-blind E5501 10 mg): 71.4% | platelet counts from baseline (FIG. 2 FAS, FIG. 3 SE population) (rollover study): markedly increased from baseline | durable platelet response estimate (sensitivity analysis based on 55 subjects, all subjects): 50.9% | durable platelet response estimate (sensitivity analysis, non-responders): 33.3% | durable platelet response estimate (sensitivity analysis, responders): 72%
